{"source": "patent US7387779B2", "about": "“Anti-angiogenic proteins and fragments and methods of use thereof” (Beth Israel Deaconess Medical Center, priority 1998, dated 2008)", "molecules": {"B1": {"name": "Tum-3: residues 133 to 244 of Tumstatin (SEQ ID NO:24) (protein)", "chain": "AVHSQTTDIPPCPHGWISLWKGFSFIMFTSAGSEGTGQALASPGSCLEEFRASPFLECHGRGTCNYYSNSYSFWLASLNPERMFRKPIPSTVKAGELEKIISRCQVCMKKRH", "modifications": "Tum-3 (amino acids 133-244 of SEQ ID NO10)"}}, "key": {"[1]": {"tested_on": "PC3 tumor xenografts", "test": "PC3 human prostate tumor xenograft (Example 59)", "type": "in vivo, nude NCRNU mice", "settings": "3 weeks; for Final Tumor Weight (V/Vo) ± SEM: control 1070.0 ± 132.5", "source_text": "(§1) For tests involving the MDAMB-435 model, female nude NCRNU mice, 5-6 weeks old, weighing approximately 20 grams, were implanted with 2×10^6 MDAMB-435 cells into the subaxillary mammary fat pad. For tests involving the PC3 model, male nude NCRNU mice, 5-6 weeks old, weighing approximately 25 g were implanted with 2×10^6 PC3 cells into the dorsal subcutis. When the tumors were 100 mm^3 (for the MDAMB-435 model), or 60 mm^3 (for the PC3 model), the animals were pair-matched into treatment and control groups.\n(§2) Each group contained 6-7 tumored mice, each of which was ear-tagged and followed individually throughout the experiment. Initial doses of peptide or vehicle control were given on the day of pair-matching (Day 0), and were administered daily via intraperitoneal (i.p.) injection at doses indicated. Mice were weighed weekly, and tumor measurements were taken by calipers weekly, starting on Day 0. These tumor measurements were converted to tumor volume by a well-known formula, (V=W^2×L/2) and mean tumor volumes were plotted against time. Mice were euthenized at the end of the treatment period. Upon termination, the mice were weighed, sacrificed and their tumors were excised. The mean tumor weight per group was calculated, and the mean treated tumor volume/control tumor volume×100 was subtracted from 100% to give the tumor growth inhibition (TGI) for each group."}, "[2]": {"tested_on": "MDAMB-435 tumor xenografts", "test": "MDAMB-435 human breast tumor xenograft (Example 59)", "type": "in vivo, nude NCRNU mice", "settings": "3 weeks; for Final Tumor Weight (V/Vo) ± SEM: control 468.5 ± 48.06", "source_text": "as §1, §2"}, "[3]": {"tested_on": "PC3 tumor xenografts", "test": "PC3 human prostate tumor xenograft (Example 58)", "type": "in vivo, nude NCRNU mice", "settings": "5.0 mg/kg i.p. daily, 3 weeks", "method": "Male nude NCRNU mice, 5-6 weeks old, weighing approximately 25 grams, 6 were implanted with 2×10^6 PC3 cells into the dorsal subcutis. When the tumors were 60 mm^3, the animals were pair-matched into treatment and control groups. Each group contained 6-7 tumored mice, each of which was ear-tagged and followed individually throughout the experiment. Initial doses of peptide or vehicle control were given on the day of pair-matching (Day 0), and were administered via intraperitoneal (i.p.) injection at doses indicated. Mice were weighed weekly, and tumor measurements were taken by calipers weekly. These tumor measurements were converted to tumor volume by a well-known formula, (V=W^2×L/2), and mean tumor volumes were plotted against time. Mice were euthenized at the end of the treatment period. Upon termination, the mice were weighed, sacrificed and their tumors were excised. The mean tumor weight per group was calculated, and the value of mean treated tumor volume or volume ratio/mean control tumor volume or volume ratio×100 was subtracted from 100% to give the tumor growth inhibition (TG1) for each group. All groups received injections I.P. daily, except for two T8-treated groups, which were treated twice per week and once a week, respectively."}, "[4]": {"tested_on": "Caspase-3 in C-PAE cells", "test": "Caspase-3 assay", "type": "cell-based, bovine", "method": "Tumstatin also altered cell morphology of C-PAE cells as monitored by phase contrast microscopy. After treating cells with 20 μg/ml of Tumstatin in the presence of 10% FCS for 24 hours on fibronectin-coated plates, the typical morphological features of apoptotic cells, membrane blebbing, cytoplasmic shrinkage, and chromatin condensation could be observed. […] Caspase-3 assay: Caspase-3 (CPP32) is an intracellular protease activated at the early stage of apoptosis, and initiates cellular breakdown by degrading structural and DNA repair proteins (Casciola-Rosen, L. et al., 1996, J. Exp. Med. 183:1957-64; Salvesen, G. S. et al., 1997, Cell 91:443-46). The protease activity of Caspase-3 was measured spectrophotometrically by detection of the chromophore (p-nitroanilide) cleaved from the labeled substrate (DEVD-pNA). C-PAE cells or PC-3 cells (0.5×10^6 per well) were plated onto a 6-well plate precoated with fibronectin (10 μg/ml) in DMEM supplemented with 10% FCS, and incubated overnight. The next day, the medium was replaced with DMEM containing 2% FCS and then incubated overnight at 37° C. Then cells were then stimulated with bFGF (3 ng/ml) in DMEM supplemented with 2% FCS, and also containing either TNF-α (80 ng/ml, positive control) or Tumstatin (10 μg/ml), and incubated for 24 hours. Controls received PBS buffer. After 24 hours, the supernatant cells were collected, and attached cells were trypsinized and combined with the supernatant cells. Cells were counted and resuspended in cell lysis buffer (Clontech) at a concentration of 4×10^7 cells/ml. The rest of the protocol followed the manufacturer's instructions (Clontech). A specific inhibitor of Caspase-3, DEVD-fmk (Asp-Glu-Val-Asp-fluoromethyl ketone) was used to confirm the specificity of the assay. The absorbance was measured in a microplate reader (Bio-Rad, Hercules, Calif., USA) at 405 nm. The assay was repeated three times for each cell type.\nApoptosis was also evaluated by measuring Caspase-3 activity as described in Example 27, above. The results are shown in FIG. 35, which is a histogram showing Caspase-3 activity as a measure of absorbance at OD405 (y-axis) of C-PAE cells treated (x-axis) with 5 μg/ml Tum-1, Tum-2, Tum-3 or Tum-4, or 80 ng/ml TNF-α or PBS buffer (control).\nCaspase-3 activity was also assayed as described above. DEVD-fmk, a specific caspase-3 inhibitor, was used as an internal control to show specificity of Tumstatin-44-131. TNF-α (80 ng/ml) was used as a positive control. The experiments were repeated three times.\nThe protease activity of Caspase-3 in cells treated with T3 peptide was measured spectrophotometrically by detection of the chromophore (p-nitroanilide) cleaved from the labeled substrate (DEVD-pNA). […] In PC-3 nonendothelial cells, there was no difference in Caspase-3 activity between control treatments and T3 peptide-treated cells."}, "[5]": {"tested_on": "C-PAE cells", "test": "Endothelial cell proliferation, methylene blue staining", "type": "cell-based, bovine", "method": "A methylene blue staining test was also done. 3,100 cells were added to each well and treated as above, and cells were then counted using the method of Oliver et al. (Oliver, M. H. et al., 1989, J. Cell. Science 92:513-18). All wells were washed one time with […] of 1×PBS and the cells were fixed by adding […] of 10% formalin in neutral-buffered saline (Sigma Chemical Co., St. Louis, Mo., USA) for 30 minutes at room temperature. After formalin removal cells were stained with a solution of 1% methylene blue (Sigma Chemical Co.) in 0.01 M borate buffer (pH 8.5) for 30 minutes at room temperature. After removal of staining solution, the wells were washed 5 times with […] of 0.01 M borate buffer (pH 8.5). Methylene blue was extracted from the cells with […] of 0.1N HCi/ethanol (1:1 mixture) for 1 hour at room temperature. The amount of methylene blue staining was measured on a microplate reader (BioRad, Hercules, Calif., USA) using light absorbance at 655 nm wavelength.\nIn the methylene-blue staining method, 7000 cells were plated into each well of a 96-well plate, and treated as described above. Cells were then counted using the method of Oliver et al. (1989, J. Cell. Sci. 92:513-8). After 48 hours of treatment, all wells were washed with 100 μl of PBS, and the cells fixed with 10% formalin in neutral-buffered saline (Sigma Chemical Co., St. Louis, Mo., USA). The cells were then stained with 1% methylene blue (Sigma) in 0.01M borate buffer, pH 8.5. Wells were washed with 0.01M borate buffer, and the methylene blue extracted from the cells with 0.1N HCl/ethanol, and the absorbance measured in a microplate reader (Bio-Rad, Hercules, Calif., USA) at 655 nm. Polymyxin B (Sigma) at a final concentration of 5 μg/ml was used to inactivate endotoxin (Liu, S. et al., 1997, Clin. Biochem. 30:455-63).\nProliferation of endothelial cells (C-PAE cells) and WM-164 melanoma cells was assayed by methylene blue staining, as described above in Examples 25 and 34. The results are shown in FIGS. 33A and 33B, which are a pair of graphs showing the effect of increasing concentration (x-axis) of Tumstatin, Tum-1, Tum-2, Tum-3 and Tum-4 on the relative number (y-axis) of C-PAE cells (FIG. 33A) and WM-164 cells (FIG. 33B). […] Tum-4, however, did have anti-proliferative activity in this cell line. […] Only Tum-4 inhibited WM-164 melanoma cells.\nFor the proliferation assay, Canstatin, Can-1 and Can-2 soluble proteins (0.1-20.0 μg/ml) were added to the growth medium of proliferating C-PAE cells, which were stimulated with 10% FBS in DMEM, in addition to 5 ng/ml bFGF and 3 ng/ml VEGF. The results are shown in FIG. 40, which is a graph showing the effect of increasing concentrations of Canstatin (♦), Can-1 (▪) and Can-2 (▴) (x-axis) on the relative cell number (y-axis) of C-PAE cells. Each concentration of each protein was tested in quadruplicate. Bovine serum albumin (BSA) was used as a control treatment. Polymyxin B was used to control for endotoxin interference, and no differences were found between assays run with and without polymyxin B added to the medium. Cells were allowed to proliferate for 48 hours, and were then fixed, stained and the density read with a Bio-Rad plate reader (Bio-Rad, Hercules, Calif., USA). Canstatin and Can-1 both caused dose-dependent decreases in the percent cell number, and both reduced the number of cells by 80% at concentrations of 5 μg/ml and higher.\nAn endothelial cell proliferation assay was used to compare the activity of Tumstatin and some of the deletion mutants. Recombinant Tumstatin (28 kDa), Tumstatin-44-131 (12 kDa) and T3 peptide were used in a methylene blue proliferation assay in equimolar concentrations."}}}
{"molecule": "KQRFTTMPFLFSNVNDVSNFASRNDYS (T8-3 (amino acids 68-94 of SEQ ID NO10; lysine has been substituted for the leucine residue at position 68 of the full-length Tumstatin molecule, and serine has been substituted for the cysteine residues at positions 79 and 85))", "values": [{"measurement": "% Tumor growth inhibition", "setting": "[1]; 1.0 mg/kg i.p. daily", "value": 28.5, "unit": "%"}, {"measurement": "Final Tumor Weight (V/Vo) ± SEM", "setting": "[1]; 1.0 mg/kg i.p. daily", "value": "765.1 ± 133.6"}, {"measurement": "% Tumor growth inhibition", "setting": "[1]; 5.0 mg/kg i.p. daily", "value": 35.4, "unit": "%"}, {"measurement": "Final Tumor Weight (V/Vo) ± SEM", "setting": "[1]; 5.0 mg/kg i.p. daily", "value": "691.5 ± 130.8"}, {"measurement": "Final Tumor Weight (V/Vo) ± SEM", "setting": "[2]; 1.0 mg/kg i.p. daily", "value": "370.1 ± 68.17"}, {"measurement": "% Tumor growth inhibition", "setting": "[2]; 5.0 mg/kg i.p. daily", "value": 41.9, "unit": "%"}, {"measurement": "Final Tumor Weight (V/Vo) ± SEM", "setting": "[2]; 5.0 mg/kg i.p. daily", "value": "272.4 ± 34.86"}]}
{"molecule": "KQRFTTMPFLFDNVNDVDNFASRNDYS (P2 (amino acids 68-94 of SEQ ID NO10; lysine has been substituted for the leucine residue at position 68 of the full-length Tumstatin molecule, and aspartic acid has been substituted for the cysteine residues at positions 79 and 85))", "values": [{"measurement": "% Tumor growth inhibition", "setting": "[1]; 1.0 mg/kg i.p. daily", "value": 31.6, "unit": "%"}, {"measurement": "Final Tumor Weight (V/Vo) ± SEM", "setting": "[1]; 1.0 mg/kg i.p. daily", "value": "732.4 ± 85.96"}, {"measurement": "% Tumor growth inhibition", "setting": "[1]; 5.0 mg/kg i.p. daily", "value": 15.9, "unit": "%"}, {"measurement": "Final Tumor Weight (V/Vo) ± SEM", "setting": "[1]; 5.0 mg/kg i.p. daily", "value": "899.7 ± 60.25"}, {"measurement": "% Tumor growth inhibition", "setting": "[2]; 1.0 mg/kg i.p. daily", "value": 26.4, "unit": "%"}, {"measurement": "Final Tumor Weight (V/Vo) ± SEM", "setting": "[2]; 1.0 mg/kg i.p. daily", "value": "344.7 ± 34.20"}, {"measurement": "Final Tumor Weight (V/Vo) ± SEM", "setting": "[2]; 5.0 mg/kg i.p. daily", "value": "380.5 ± 25.91"}]}
{"molecule": "TFNCVKNYQRLDFTSRFVMDSCANFPN (Scrambled peptide SP2) [reference compound]", "values": [{"measurement": "Final Tumor Weight (V/Vo) ± SEM", "setting": "[1]; 5.0 mg/kg i.p. daily", "value": "931.0 ± 112.3"}, {"measurement": "% Tumor growth inhibition", "setting": "[2]; 5.0 mg/kg i.p. daily", "value": "no tumor growth inhibition"}, {"measurement": "Final Tumor Weight (V/Vo) ± SEM", "setting": "[2]; 5.0 mg/kg i.p. daily", "value": "527.2 ± 57.89"}, {"measurement": "% Tumor growth inhibition", "setting": "[3]", "value": 18.7, "unit": "%"}, {"measurement": "Final Tumor Weight (V/Vo) ± SEM", "setting": "[3]; T7 vehicle 5.626 ± 0.38, T8 vehicle 6.278 ± 1.483", "value": "5.097 ± 0.185"}]}
{"molecule": "CC(C)[C@H](NC(=O)[C@H](CCC(=O)O)NC(=O)[C@@H](N)CC(=O)O)C(=O)N[C@@H](CC(=O)O)C(=O)CF", "note": "[DEVD-fmk, Asp-Glu-Val-Asp-fluoromethyl ketone, reference compound]", "values": [{"measurement": "effect of specific Caspase-3 inhibitor on protease activity", "setting": "[4]", "value": "decreased the protease activity to baseline"}]}
{"molecule": "B1", "values": [{"measurement": "effect on Caspase-3 activity", "setting": "[4]; 5 μg/ml", "value": "did not"}, {"measurement": "inhibition of proliferation of C-PAE cells", "setting": "[5]; 15 μg/ml", "value": "did not inhibit"}, {"measurement": "Relative Cell No. (%) C-PAE", "setting": "[5]; 20% FCS, 15 μg/ml recombinant protein", "value": "94.9 ± 3.1", "unit": "%"}]}
